The values that follow come from US12144811B2, “Combination of a 4-pyrimidinesulfamide derivative with an SGLT-2 inhibitor for the treatment of endothelin related diseases” (IDORSIA PHARMACEUTICALS LTD, priority 2017, dated 2024).

The subject of data set [1] is Spontaneously hypertensive rats (SHR). Description: Blood pressure by telemetry in SHR, SGLT-2 inhibitor alone or in combination with ACT-132577. The class given is in vivo, rat. Conditions: 30 mg/kg/day by gavage. The source says:
Spontaneously hypertensive rats (SHR) are instrumented micro-surgically with a telemetry pressure transmitter implanted in the peritoneal cavity (Data Science International, Minnesota, USA) under isoflurane-induced narcosis. In brief, the pressure catheter is inserted into the aorta, below the renal artery pointing upstream. The abdomen is closed and the transmitter sutured to the abdominal musculature. Blood pressure is collected continuously using the Dataquest ART Platinum acquisition system (version 4.36). Drugs (ACT-132577 or SGLT2 inhibitors) or vehicle are administered by gavage (n=4-7 per group) alone or in combination. Systolic, mean and diastolic arterial pressures, and heart rate are collected at 5-minute intervals until the blood pressure curve comes back to baseline.
Because it takes several days for the SGLT2 inhibitors to exert an effect on blood pressure, rats are treated first for 12 days with either vehicle (5 ml/kg/day), or canagliflozin (30 mg/kg/day) or empagliflozin (30 mg/kg/day), then ACT-132577 (30 mg/kg/day) is co-administered for 3 additional days.

Data set [2] relates to patients with type 2 diabetes. Conditions: overt diabetic nephropathy; cited from earlier work.
The test system of a further data set is patients with rHT. Conditions: 14 week phase 3 trial, versus 12% in each of the other groups; cited from earlier work.
The subject of data set [3] is conscious, male spontaneaously hypertensive rats. As to the kind of experiment: Acute effects of Exforge HCT alone or with ACT-132577 or spironolactone in SHRs. Conditions: aprocitentan 100 mg/kg or spironolactone 300 mg/kg oral. The data set is classed as in vivo, rat. How it is done:
The acute effects of Exforge HCT® (i.e. a fixed dose combination of valsartan/amlodipine/hydrochlorothiazide; dosage adapted for 1.6 mg/kg/0.1 mg/kg/0.25 mg/kg for valsartan/amlodipine/hydrochlorothiazide, respectively) on blood pressure, in particular on mean arterial blood pressure (hereafter “MAP”), and heart rate (hereafter “HR”) in combination with ACT-132577 or spironolactone can be evaluated by means of telemetry in conscious, male spontaneaously hypertensive rats (hereafter “SHRs”—see details about this model in Atanur et al., Genome Res. (2010), 20, 791-803).
9 SHRs per treatment group are used for this test. To match the maximal effect on blood pressure of co-administereds drug in this model, aprocitentan 100 mg/kg is administrated orally on the 3rd day following 3-day oral administration of Exforge HCT® mg/kg and spironolactone 300 mg/kg is co-administered orally with Exforge HCT® on the 1st day followed by 2 days of Exforge HCT® administration. The results obtained regarding MAP are summarised in FIGS. 15 and 16 wherein each data point is presented as a 6-hour mean.

Data set [4] relates to conscious, male hypertensive deoxycorticosterone acetate salt rats. As to the kind of experiment: Acute effects of Exforge HCT alone or with ACT-132577 or spironolactone in DOCA-salt rats. The class given is in vivo, rat. Conditions: aprocitentan 10 mg/kg or spironolactone 300 mg/kg, single oral doses. From the text: Res. (1975), 36, 300-309). In the DOCA-salt rats, hypertension is induced by the combination of unilateral nephrectomy, implantation of pellets of the mineralocorticoid analog DOCA, and provision of 1% sodium chloride in drinking water. 7-9 DOCA-salt rats per treatment group are used for this test. The results obtained regarding MAP are summarised in FIGS. 17 and 18 wherein each data point is presented as a 6-hour mean.

Data set [5] is described as follows: Storage of Form A crystals at room temperature (XRPD and HPLC control). The class given is physicochemical. Conditions: 20-25° C., 92% relative humidity. As to the method:
All XRPD patterns for the solid forms described herein have been obtained as described hereafter. X-ray powder diffraction patterns were collected on a Bruker D8 Advance X-ray diffractometer equipped with a Lynxeye detector operated with CuKα-radiation in reflection mode (coupled two Theta/Theta). Typically, the X-ray tube was run at of 40 kV/40 mA. A step size of 0.02° (2θ) and a step time of 76.8 sec over a scanning range of 3-50° in 2θ were applied. The divergence slit was set to fixed 0.3. Powders were slightly pressed into a silicon single crystal sample holder with depth of 0.5 mm and samples were rotated in their own plane during the measurement. Diffraction data are reported using combined Cu Kα1 and Kα2 radiation, without Kα2 stripping. The accuracy of the 2θ values as provided herein is in the range of +/−0.1-0.2° as it is generally the case for conventionally recorded X-ray powder diffraction patterns. A sample of Form A crystals of the COMPOUND (as obtained according to Example 1 above) has been stored at a temperature of 20-25° C. at 92% relative humidity for 2 months. […] The same result was obtained after storage for 8 weeks under the above conditions.

A short description of data set [6]: Hygroscopicity by gravimetric vapor sorption (GVS). The class given is physicochemical. From the text: Mass increase of a sample as obtained according to Example 1 in the first cycle from 40% r.h. to 80% r.h. corresponds to 0.4%. At 95% r.h. 2.2% moisture were taken up in a reversible way without hysteresis upon drying.

As for canagliflozin [reference compound], the “Maximal effect on MAP of SGLT2 inhibitor alone” value in data set [1] was −9±1 mmHg. As for `OC[C@H]1O[C@@H](c2ccc(Cl)c(Cc3ccc(O[C@H]4CCOC4)cc3)c2)[C@H](O)[C@@H](O)[C@@H]1O` [empagliflozin, reference compound], in data set [1], the “Maximal effect on MAP of SGLT2 inhibitor alone” value is given as −13±3 mmHg. With `COc1ccccc1Oc1c(NS(=O)(=O)c2ccc(C)cn2)nc(-c2ccncc2)nc1OC` [Avosentan, avosentan], the “Albumin-to-creatinine ratio (ACR)” value in data set [2] is given as “significantly reduced”.

Consider `COc1cc(OC)nc(O[C@H](C(=O)O)C(OC)(c2ccccc2)c2ccccc2)n1` [darusentan], for which the “Fluid retention/edema (most frequent adverse event)” value in the data set with patients with rHT was 28%. `CC(=O)S[C@@H]1CC2=CC(=O)CC[C@]2(C)[C@H]2CC[C@@]3(C)[C@@H](CC[C@@]34CCC(=O)O4)[C@H]12` [spironolactone, reference compound]: the “Blood pressure when added on top of Exforge HCT” value in data set [3] and in data set [4] was “further reduced blood pressure” in each case. For the compound `NS(=O)(=O)Nc1ncnc(OCCOc2ncc(Br)cn2)c1-c1ccc(Br)cc1` [Form A, {5-(4-bromo-phenyl)-6-[2-(5-bromo-pyrimidin-2-yloxy)-ethoxy]-pyrimidin-4-yl}-sulfamide], the “X-ray powder diffraction of the sample after storage” value in data set [5] (2 months) is on record as “still consisting only in Form A crystals”. In data set [5] (8 weeks), the “HPLC control after storage (change in peak area %, degradation)” value was “no significant degradation”. The compound further yielded a Moisture taken up in data set [6] (at 95% r.h., reversible, without hysteresis upon drying) of 2.2%. Further, the Mass increase in data set [6] (first cycle from 40% r.h. to 80% r.h.) turned out to be 0.4%. Moreover, the “Hygroscopicity (GVS)” value in data set [6] (sample as obtained according to Example 1) is “slightly hygroscopic”.
